Test results: patent US12264134B2 (Merck Sharp & Dohme LLC, priority 2018, dated 2025)

Target: IDO1 (Homo sapiens, UniProt P14902)
Assay: IDO1 Cellular Assay in HeLa Cells Stimulated with IFNγ
Assay type: cell-based
Settings: read-out: HeLa Cell Potency, IC50

Chain of IDO1 (P14902 whole entry): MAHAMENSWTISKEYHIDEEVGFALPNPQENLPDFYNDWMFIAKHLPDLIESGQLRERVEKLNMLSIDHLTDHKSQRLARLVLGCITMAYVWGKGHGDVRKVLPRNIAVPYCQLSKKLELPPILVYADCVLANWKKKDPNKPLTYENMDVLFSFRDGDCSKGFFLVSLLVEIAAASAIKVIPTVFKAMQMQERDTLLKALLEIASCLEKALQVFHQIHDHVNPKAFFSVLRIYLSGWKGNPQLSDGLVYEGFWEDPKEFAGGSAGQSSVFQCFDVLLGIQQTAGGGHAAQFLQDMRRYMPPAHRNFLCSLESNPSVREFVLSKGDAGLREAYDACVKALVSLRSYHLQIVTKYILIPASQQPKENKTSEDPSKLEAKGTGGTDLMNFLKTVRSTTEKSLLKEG

IC50 [nM] | Compound
1.49 | Cc1cccc(N2CCN(C(=O)Cn3nc(C(=O)N4CC[C@@H](C#N)C4)c4c3C[C@H]3C[C@@H]43)CC2)c1C [Example 223, (3R)-1-[(3bR,4aR)-1-{2-[4-(2,3-dimethylphenyl)piperazin-1-yl]-2-oxoethyl}-3b,4,4a,5-tetrahydro-1H-cyclopropa[3,4]cyclopenta[1,2-c]pyrazole-3-carbonyl] pyrrolidine-3-carbonitrile]
1.06 | Cc1c(Cl)cccc1N1CCN(C(=O)Cn2nc(C(=O)N3CC[C@H](O)[C@@H](F)C3)c3c2CCCC3)CC1 [Example 404, 1-(4-(3-chloro-2-methylphenyl)piperazin-1-yl)-2-(3-((3S,4S)-3-fluoro-4-hydroxypiperidine-1-carbonyl)-4,5,6,7-tetrahydro-1H-indazol-1-yl)ethanone]
7.98 | Cc1cccc(N2CCN(C(=O)Cn3nc(C(=O)N4CCC(O)C(CO)C4)c4c3CCC4)CC2)c1C (centres unmarked) [Example 148, 1-[4-(2,3-dimethylphenyl)piperazin-1-yl]-2-{3-[4-hydroxy-3-(hydroxymethyl)piperidine-1-carbonyl]-5,6-dihydrocyclopenta[c]pyrazol-1(4H)-yl}ethan-1-one]
10.1 | Cc1cccc(N2CCN(C(=O)Cn3nc(C(=O)N4CCN(C5CC5)CC4)c4c3CCC4)CC2)c1C [Example 123, 2-[3-(4-cyclopropylpiperazine-1-carbonyl)-5,6-dihydrocyclopenta[c]pyrazol-1(4H)-yl]-1-[4-(2,3-dimethylphenyl)piperazin-1-yl]ethan-1-one]
34.8 | Cc1cc(Cl)ccc1N1CCN(C(=O)Cn2nc(C(=O)N3C[C@@H](C)O[C@@H](C)C3)c3c2CCC3)CC1 [Example 43, 1-[4-(4-chloro-2-methylphenyl)piperazin-1-yl]-2-{3-[(2R,6S)-2,6-dimethylmorpholine-4-carbonyl]-5,6-dihydrocyclopenta[c]pyrazol-1(4H)-yl}ethan-1-one]
1.5 | Cc1cccc(N2CCN(C(=O)Cn3nc(C(=O)N4CC[C@@H](CO)C4)c4c3C[C@H]3C[C@@H]43)CC2)c1C [Example 252, 1-[4-(2,3-dimethylphenyl)piperazin-1-yl]-2-{(3bR,4aR)-3-[(3R)-3-(hydroxymethyl)pyrrolidine-1-carbonyl]-3b,4,4a,5-tetrahydro-1H-cyclopropa[3,4]cyclopenta[1,2-c]pyrazol-1-yl}ethan-1-one]
2.85 | Cc1c(N2CCN(C(=O)Cn3nc(C(=O)N4CCN(C(=O)CO)CC4)c4c3C[C@H]3C[C@@H]43)CC2)cccc1C(F)(F)F [Example 337, 2-hydroxy-1-(4-((3bR,4aR)-1-(2-(4-(2-methyl-3-(trifluoromethyl)phenyl)piperazin-1-yl)-2-oxoethyl)-3b,4,4a,5-tetrahydro-1H-cyclopropa [3,4]cyclopenta[1,2-c]pyrazole-3-carbonyl)piperazin-1-yl)ethanone]
1.91 | Cc1c(N2CCN(C(=O)Cn3nc(C(=O)N4CCO[C@@H](CO)C4)c4c3C[C@H]3C[C@@H]43)CC2)cccc1C(F)(F)F [Example 343, 2-((3bR,4aR)-3-((R)-2-(hydroxymethyl)morpholine-4-carbonyl)-3b,4,4a,5-tetrahydro-1H-cyclopropa [3,4]cyclopenta[1,2-c]pyrazol-1-yl)-1-(4-(2-methyl-3-(trifluoromethyl)phenyl)piperazin-1-yl)ethanone]
6.68 | C[C@@H]1CN(C(=O)c2nn(CC(=O)N3CCN(c4cccc5c4CCC5)CC3)c3c2CCC3)C[C@H](C)O1 [Example 80, 1-[4-(2,3-dihydro-1H-inden-4-yl)piperazin-1-yl]-2-{3-[(2R,6S)-2,6-dimethylmorpholine-4-carbonyl]-5,6-dihydrocyclopenta[c]pyrazol-1(4H)-yl}ethan-1-one]
30.4 | Cc1ccc(N2CCN(C(=O)Cn3nc(C(=O)N4C[C@@H](C)O[C@@H](C)C4)c4c3CCC4)CC2)cc1F [Example 64, 2-{3-[(2R,6S)-2,6-dimethylmorpholine-4-carbonyl]-5,6-dihydrocyclopenta[c]pyrazol-1(4H)-yl}-1-[4-(3-fluoro-4-methylphenyl)piperazin-1-yl]ethan-1-one]
405 | Cc1cccc(N2CCN(C(=O)Cn3nc(C(=O)N4CCC5(CCCN5)CC4)c4c3CCC4)CC2)c1C [Example 177, 2-[3-(1,8-diazaspiro[4.5]decane-8-carbonyl)-5,6-dihydrocyclopenta[c]pyrazol-1(4H)-yl]-1-[4-(2,3-dimethylphenyl)piperazin-1-yl]ethan-1-one]
145 | COc1c(F)cccc1N1CCN(C(=O)Cn2nc(C(=O)N3C[C@@H](C)O[C@@H](C)C3)c3c2CCC3)CC1 [Example 65, 2-{3-[(2R,6S)-2,6-dimethylmorpholine-4-carbonyl]-5,6-dihydrocyclopenta[c]pyrazol-1(4H)-yl}-1-[4-(3-fluoro-2-methoxyphenyl)piperazin-1-yl]ethan-1-one]
28.6 | Cc1cccc(N2CCN(C(=O)Cn3nc(C(=O)N4CCC(O)(c5ccccc5)CC4)c4c3CCC4)CC2)c1C [Example 111, 1-[4-(2,3-dimethylphenyl)piperazin-1-yl]-2-[3-(4-hydroxy-4-phenylpiperidine-1-carbonyl)-5,6-dihydrocyclopenta[c]pyrazol-1(4H)-yl]ethan-1-one]
4.93 | Cc1c(Cl)ccnc1N1CCN(C(=O)Cn2nc(C(=O)N3CCC(O)CC3)c3c2CCCC3)C2(CC2)C1 [Example 408, 1-(7-(4-chloro-3-methylpyridin-2-yl)-4,7-diazaspiro[2.5]octan-4-yl)-2-(3-(4-hydroxypiperidine-1-carbonyl)-4,5,6,7-tetrahydro-1H-indazol-1-yl)ethanone]
38.7 | Cc1cccc(N2CCN(C(=O)Cn3nc(C(=O)N4CCC5C(C4)NC(=O)N5C)c4c3C[C@H]3C[C@@H]43)CC2)c1C (stereo partly drawn) [Example 273, 5-[(3bR,4aR)-1-{2-[4-(2,3-dimethylphenyl)piperazin-1-yl]-2-oxoethyl}-3b,4,4a,5-tetrahydro-1H-cyclopropa[3,4]cyclopenta[1,2-c]pyrazole-3-carbonyl]-1-methyloctahydro-2H-imidazo[4,5-c]pyridin-2-one]
90.9 | Cc1cccc(N2CCN(C(=O)Cn3nc(C(=O)N4CCC(F)(F)[C@@H](O)C4)c4c3CCC4)CC2)c1C (single isomer, unassigned) [Example 213, 2-[3-[(3S or 3R)-4,4-difluoro-3-hydroxy-piperidine-1-carbonyl]-5,6-dihydro-4H-cyclopenta[c]pyrazol-1-yl]-1-[4-(2,3-dimethylphenyl)piperazin-1-yl]ethanone]
79.9 | Cc1cccc(N2CCN(C(=O)Cn3nc(C(=O)N4CCC(F)(F)C(O)C4)c4c3CCC4)CC2)c1C (centres unmarked) [Example 212, 2-[3-(4,4-difluoro-3-hydroxy-piperidine-1-carbonyl)-5,6-dihydro-4H-cyclopenta[c]pyrazol-1-yl]-1-[4-(2,3-dimethylphenyl)piperazin-1-yl]ethanone]
1.59 | Cc1cccc(N2CCN(C(=O)Cn3nc(C(=O)N4CCC(O)(CF)CC4)c4c3C[C@H]3C[C@@H]43)C3(CC3)C2)c1C [Example 358]
5.39 | Cc1cccc(N2CCN(C(=O)Cn3nc(C(=O)N4CCC5(CC4)CC5(F)F)c4c3CCC4)CC2)c1C [Example 110, 2-[3-(1,1-difluoro-6-azaspiro[2.5]octane-6-carbonyl)-5,6-dihydrocyclopenta[c]pyrazol-1(4H)-yl]-1-[4-(2,3-dimethylphenyl)piperazin-1-yl]ethan-1-one]
30.2 | Cc1cccc(N2CCN(C(=O)Cn3nc(C(=O)N4CC[C@@H](O)[C@@H](F)C4)c4c3CCC3(C4)CC3(F)F)CC2)c1C (stereo partly drawn) [Example 304, 2-{2,2-difluoro-3′-[(3S,4R)-3-fluoro-4-hydroxypiperidine-1-carbonyl]-6′,7′-dihydrospiro[cyclopropane-1,5-indazol]-1′(′4H)-yl}-1-[4-(2,3-dimethylphenyl)piperazin-1-yl]ethan-1-one]
7.33 | Cc1cccc(N2CCN(C(=O)Cn3nc(C(=O)N4CCC5(CCC(=O)N5C)CC4)c4c3CCC4)CC2)c1C [Example 140, 8-(1-{2-[4-(2,3-dimethylphenyl)piperazin-1-yl]-2-oxoethyl}-1,4,5,6-tetrahydrocyclopenta[c]pyrazole-3-carbonyl)-1-methyl-1,8-diazaspiro[4.5]decan-2-one]
9.76 | Cc1cccc(N2CCN(C(=O)Cn3nc(C(=O)N4CCC(NC(N)=O)CC4)c4c3CCC4)CC2)c1C [Example 188, N-[1-(1-{2-[4-(2,3-dimethylphenyl)piperazin-1-yl]-2-oxoethyl}-1,4,5,6-tetrahydrocyclopenta[c]pyrazole-3-carbonyl)piperidin-4-yl]urea]
5.75 | Cc1cccc(N2CCN(C(=O)Cn3nc(C(=O)N4CC5CCC(C4)N5C)c4c3C[C@H]3C[C@@H]43)CC2)c1C [Example 270, 1-[4-(2,3-dimethylphenyl)piperazin-1-yl]-2-[(3bR,4aR)-3-(8-methyl-3,8-diazabicyclo[3.2.1]octane-3-carbonyl)-3b,4,4a,5-tetrahydro-1H-cyclopropa[3,4]cyclopenta[1,2-c]pyrazol-1-yl]ethan-1-one]
2.46 | CC(=O)NC1CCN(C(=O)c2nn(CC(=O)N3CCN(c4cccc(C(F)(F)F)c4C)CC3)c3c2[C@@H]2C[C@@H]2C3)CC1 [Example 340, N-(1-((3bR,4aR)-1-(2-(4-(2-methyl-3-(trifluoromethyl)phenyl)piperazin-1-yl)-2-oxoethyl)-3b,4,4a,5-tetrahydro-1H-cyclopropa[3,4]cyclopenta[1,2-c]pyrazole-3-carbonyl)piperidin-4-yl)acetamide]
10.5 | Cc1cccc(N2CCN(C(=O)Cn3nc(C(=O)N4CCN(CCO)CC4)c4c3CCC4)CC2)c1C [Example 162, 1-[4-(2,3-dimethylphenyl)piperazin-1-yl]-2-{3-[4-(2-hydroxyethyl)piperazine-1-carbonyl]-5,6-dihydrocyclopenta[c]pyrazol-1(4H)-yl}ethan-1-one]
0.64 | Cc1cccc(N2CCN(C(=O)Cn3nc(C(=O)N4CC[C@@H]5[C@H](CCC(=O)N5C)C4)c4c3C[C@H]3C[C@@H]43)CC2)c1C [Example 218, (4aR,8aR)-6-((3bR,4aR)-1-(2-(4-(2,3-dimethylphenyl)piperazin-1-yl)-2-oxoethyl)-3b,4,4a,5-tetrahydro-1H-cyclopropa[3,4]cyclopenta[1,2-c]pyrazole-3-carbonyl)-1-methyloctahydro-1,6-naphthyridin-2(1H)-one]
